Assay results: PubChem BioAssay (NCI)
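GI50 marks 50% less growth. TGI: concentration producing complete growth inhibition.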

Key:
Experiment in all cases: NCI-60 cell line screen, 384-well format
HS 578T breast = system: HS 578T breast
MDA-MB-435 melanoma = system: MDA-MB-435 melanoma
HL-60(TB) leukemia = system: HL-60(TB) leukemia
EKVX NSCLC = system: EKVX NSCLC
CCRF-CEM leukemia = system: CCRF-CEM leukemia
SK-MEL-28 melanoma = system: SK-MEL-28 melanoma
OVCAR-4 ovarian = system: OVCAR-4 ovarian
TK-10 renal = system: TK-10 renal
SK-OV-3 ovarian = system: SK-OV-3 ovarian
RXF 393 renal = system: RXF 393 renal
786-0 renal = system: 786-0 renal
SN12C renal = system: SN12C renal
MALME-3M melanoma = system: MALME-3M melanoma
NCI-H23 lung = system: NCI-H23 lung
OVCAR-8 ovarian = system: OVCAR-8 ovarian
SF-268 CNS = system: SF-268 CNS
ACHN renal = system: ACHN renal
HCT-116 colon = system: HCT-116 colon
HT29 colon = system: HT29 colon
MDA-MB-231 breast = system: MDA-MB-231 breast
UACC-257 melanoma = system: UACC-257 melanoma
MCF7 breast = system: MCF7 breast
U251 glioblastoma = system: U251 glioblastoma
SW-620 colon = system: SW-620 colon
UO-31 renal = system: UO-31 renal
NCI-H460 NSCLC = system: NCI-H460 NSCLC
SR leukemia = system: SR leukemia
SF-295 CNS = system: SF-295 CNS
UACC-62 melanoma = system: UACC-62 melanoma
M14 melanoma = system: M14 melanoma
HCT-15 colon = system: HCT-15 colon
MDA-MB-468 breast = system: MDA-MB-468 breast
A549 NSCLC = system: A549 NSCLC
DU-145 prostate = system: DU-145 prostate
A498 renal = system: A498 renal
T-47D breast = system: T-47D breast
IGROV1 ovarian = system: IGROV1 ovarian
KM12 colon = system: KM12 colon
HOP-92 NSCLC = system: HOP-92 NSCLC
SF-539 CNS = system: SF-539 CNS
NCI/ADR-RES ovarian = system: NCI/ADR-RES ovarian
MOLT-4 leukemia = system: MOLT-4 leukemia
NCI-H226 lung = system: NCI-H226 lung
HOP-62 NSCLC = system: HOP-62 NSCLC
OVCAR-3 ovarian = system: OVCAR-3 ovarian
PC-3 prostate = system: PC-3 prostate
NCI-H322M lung = system: NCI-H322M lung
NCI-H522 lung = system: NCI-H522 lung
HCC-2998 colon = system: HCC-2998 colon
SNB-75 CNS = system: SNB-75 CNS
SNB-19 CNS = system: SNB-19 CNS
CAKI-1 renal = system: CAKI-1 renal
K-562 leukemia = system: K-562 leukemia
COLO 205 colon = system: COLO 205 colon
LOX IMVI melanoma = system: LOX IMVI melanoma
RPMI-8226 leukemia = system: RPMI-8226 leukemia
SK-MEL-5 melanoma = system: SK-MEL-5 melanoma
BT-549 breast = system: BT-549 breast

`COCC(=O)NC/C=C/c1ccc2ncnc(Nc3ccc(Oc4ccc(C)nc4)c(C)c3)c2c1` gave a GI50 (HS 578T breast) of 11.9 µM, a TGI (HS 578T breast) of 24.2 µM and a GI50 (MDA-MB-435 melanoma) of 15.6 µM. It also gave a TGI (MDA-MB-435 melanoma) of 29.1 µM, a GI50 (HL-60(TB) leukemia) of 3.53 µM and a TGI (HL-60(TB) leukemia) of 10.3 µM. For the same molecule, the GI50 (EKVX NSCLC) was 9.72 µM, the TGI (EKVX NSCLC) was 22.6 µM and the GI50 (CCRF-CEM leukemia) was 2860 nM. It also gave a TGI (CCRF-CEM leukemia) of 7.8 µM, a GI50 (SK-MEL-28 melanoma) of 17.1 µM and a TGI (SK-MEL-28 melanoma) of 31.1 µM. The GI50 (OVCAR-4 ovarian) was 13.3 µM, the TGI (OVCAR-4 ovarian) was 26.3 µM and the GI50 (TK-10 renal) was 12 µM. It also gave a TGI (TK-10 renal) of 24.7 µM, a GI50 (SK-OV-3 ovarian) of 11.3 µM and a TGI (SK-OV-3 ovarian) of 23.5 µM. It also gave a GI50 (RXF 393 renal) of 10.7 µM, a TGI (RXF 393 renal) of 22.7 µM and a GI50 ([…]-0 renal) of 16 µM. The TGI (786-0 renal) was 29.6 µM, the GI50 (SN12C renal) was 11.6 µM and the TGI (SN12C renal) was 26.5 µM. The GI50 (MALME-3M melanoma) was 14.3 µM, the TGI (MALME-3M melanoma) was 27.4 µM and the GI50 (NCI-H23 lung) was 15.1 µM. The TGI (NCI-H23 lung) was 28.8 µM, the GI50 (OVCAR-8 ovarian) was 3.59 µM and the TGI (OVCAR-8 ovarian) was 13.1 µM. For the same molecule, the GI50 (SF-268 CNS) was 16.7 µM, the TGI (SF-268 CNS) was 31 µM and the GI50 (ACHN renal) was 12.1 µM. For the same molecule, the TGI (ACHN renal) was 29.1 µM, the GI50 (HCT-116 colon) was 14.2 µM and the TGI (HCT-116 colon) was 27.5 µM. It also gave a GI50 (HT29 colon) of 15.1 µM, a TGI (HT29 colon) of 28.5 µM and a GI50 (MDA-MB-231 breast) of 10.7 µM. The TGI (MDA-MB-231 breast) was 23.3 µM, the GI50 (UACC-257 melanoma) was 14.9 µM and the TGI (UACC-257 melanoma) was 28.3 µM. It also gave a GI50 (MCF7 breast) of 4.11 µM, a TGI (MCF7 breast) of 14.7 µM and a GI50 (U251 glioblastoma) of 15 µM. The TGI (U251 glioblastoma) was 28.4 µM, the GI50 (SW-620 colon) was 11.1 µM and the TGI (SW-620 colon) was 23.2 µM. For the same molecule, the GI50 (UO-31 renal) was 12.6 µM, the TGI (UO-31 renal) was 25.6 µM and the GI50 (NCI-H460 NSCLC) was 4.25 µM. It also gave a TGI (NCI-H460 NSCLC) of 13.2 µM, a GI50 (SR leukemia) of 4.1 µM and a TGI (SR leukemia) of 8.2 µM. The GI50 (SF-295 CNS) was 14 µM, the TGI (SF-295 CNS) was 27.3 µM and the GI50 (UACC-62 melanoma) was 14.9 µM. The TGI (UACC-62 melanoma) was 28.2 µM, the GI50 (M14 melanoma) was 17.1 µM and the TGI (M14 melanoma) was 30.9 µM. The GI50 (HCT-15 colon) was 13 µM, the TGI (HCT-15 colon) was 26.4 µM and the GI50 (MDA-MB-468 breast) was 2190 nM. It also gave a TGI (MDA-MB-468 breast) of 6.66 µM, a GI50 (A549 NSCLC) of 11.5 µM and a TGI (A549 NSCLC) of 23.9 µM. The GI50 (DU-145 prostate) was 12.9 µM, the TGI (DU-145 prostate) was 29.3 µM and the GI50 (A498 renal) was 14.3 µM. The TGI (A498 renal) was 27.6 µM, the GI50 (T-47D breast) was 4.62 µM and the TGI (T-47D breast) was 17.6 µM. It also gave a GI50 (IGROV1 ovarian) of 11.7 µM, a TGI (IGROV1 ovarian) of 24.5 µM and a GI50 (KM12 colon) of 15.8 µM. For the same molecule, the TGI (KM12 colon) was 29.8 µM, the GI50 (HOP-92 NSCLC) was 13.4 µM and the TGI (HOP-92 NSCLC) was 26.4 µM. It also gave a GI50 (SF-539 CNS) of 2660 nM, a TGI (SF-539 CNS) of 6.57 µM and a GI50 (NCI/ADR-RES ovarian) of 15 µM. It also gave a TGI (NCI/ADR-RES ovarian) of 29.6 µM, a GI50 (MOLT-4 leukemia) of 6.77 µM and a TGI (MOLT-4 leukemia) of 18.8 µM. The GI50 (NCI-H226 lung) was 16.4 µM, the TGI (NCI-H226 lung) was 31.9 µM and the GI50 (HOP-62 NSCLC) was 15.4 µM. It also gave a TGI (HOP-62 NSCLC) of 29.6 µM, a GI50 (OVCAR-3 ovarian) of 14.3 µM and a TGI (OVCAR-3 ovarian) of 27.8 µM. For the same molecule, the GI50 (PC-3 prostate) was 13.9 µM, the TGI (PC-3 prostate) was 28.3 µM and the GI50 (NCI-H322M lung) was 10.7 µM. It also gave a TGI (NCI-H322M lung) of 25.8 µM, a GI50 (NCI-H522 lung) of 1290 nM and a TGI (NCI-H522 lung) of 17.3 µM. The GI50 (HCC-2998 colon) was 17.5 µM, the TGI (HCC-2998 colon) was 31.4 µM and the GI50 (SNB-75 CNS) was 15.9 µM. It also gave a TGI (SNB-75 CNS) of 29.6 µM, a GI50 (SNB-19 CNS) of 15.2 µM and a TGI (SNB-19 CNS) of 28.9 µM. It also gave a GI50 (CAKI-1 renal) of 10.9 µM, a TGI (CAKI-1 renal) of 23.6 µM and a GI50 (K-562 leukemia) of 5.45 µM. It also gave a TGI (K-562 leukemia) of 18.2 µM, a GI50 (COLO 205 colon) of 12.3 µM and a TGI (COLO 205 colon) of 24.8 µM. It also gave a GI50 (LOX IMVI melanoma) of 12 µM, a TGI (LOX IMVI melanoma) of 24.6 µM and a GI50 (RPMI-8226 leukemia) of 4.48 µM. For the same molecule, the TGI (RPMI-8226 leukemia) was 15.3 µM, the GI50 (SK-MEL-5 melanoma) was 3.38 µM and the TGI (SK-MEL-5 melanoma) was 13.6 µM. For the same molecule, the GI50 (BT-549 breast) was 13.7 µM and the TGI (BT-549 breast) was 26.8 µM.
